Results published in patent US11945822B2, “Pyrazolo-triazine and/or pyrazolo-pxrimidine derivatives as selective inhibitor of cyclin dependent kinase” (QURIENT CO., LTD., priority 2018, dated 2024).

target: T1, CDK5/p25 (Homo sapiens, UniProt Q00535); experiment: Enzymatic assay for CDK5 (FRET based LANCE Ultra kinase assay); type: biochemical; settings: read-out: CDK5 enzymatic activity (IC50 range)
T1 construct: purchased Invitrogen PR8543B
Method in brief: (§1)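 TR-FRET (LANCE Ultra) kinase assay at ATP Km, ULight-MBP peptide substrate (68 nM), 8-dose 4-fold compound series in DMSO. Enzymes: […]; 60 min at 23° C., stopped with EDTA plus Eu-anti-phospho-MBP antibody, read 665/615 nm after 60 min.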

T1 sequence (Q00535 whole entry): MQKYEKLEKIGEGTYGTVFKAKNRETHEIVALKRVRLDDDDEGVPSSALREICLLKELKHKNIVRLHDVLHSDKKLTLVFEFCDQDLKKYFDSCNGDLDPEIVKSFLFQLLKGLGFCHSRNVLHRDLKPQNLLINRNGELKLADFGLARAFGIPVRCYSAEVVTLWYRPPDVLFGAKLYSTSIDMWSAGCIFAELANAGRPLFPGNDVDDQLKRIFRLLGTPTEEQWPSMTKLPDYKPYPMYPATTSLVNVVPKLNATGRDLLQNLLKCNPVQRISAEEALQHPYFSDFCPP
T1 sequence (Q15078 99-307 partner limits assumed): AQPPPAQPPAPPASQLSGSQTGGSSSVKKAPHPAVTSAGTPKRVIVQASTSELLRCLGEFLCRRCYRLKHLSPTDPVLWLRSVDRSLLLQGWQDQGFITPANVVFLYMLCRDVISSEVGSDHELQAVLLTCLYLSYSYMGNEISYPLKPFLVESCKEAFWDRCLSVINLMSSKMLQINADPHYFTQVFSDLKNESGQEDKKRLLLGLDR

IC50 [nM] | SMILES
> 1000 | CC(C)c1cnn2c(NCc3c(Cl)cccc3-c3cc(C(C)(C)O)n(C)n3)nc(N3CCC(N)CC3)nc12 [Compound 244]
> 1000 | CC(C)c1cnn2c(NCc3c(Cl)cccc3-n3ccc(C(C)(C)O)n3)nc(N3CCC(C)(N)CC3)nc12 [Compound 246]
> 1000 | CC(C)c1cnn2c(NCc3ccccc3-c3ccc4ccccc4n3)nc(NCC[C@H](O)CN)nc12 [Compound 247]
> 1000 | CC(C)c1cnn2c(NCc3ccccc3-c3ccc4ccccc4n3)nc(NC[C@@H](O)CN)nc12 [Compound 248]

tested on: H460; experiment: Cellular H460 viability assay (CellTiter-Glo, 72 hours); type: cell-based; settings: Homo sapiens, NCI-H460
Method in brief: (§2)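 Steps: seed cells at per-line density; add compound, DMSO vehicle kept under 0.1% final; incubate 72 h, 37 °C, 5% CO2; lyse with CellTiter-Glo and read luminescence; run in duplicate.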

IC50 [nM] | SMILES
< 1000 | CC(C)c1cnn2c(NCc3c(Cl)cccc3-c3cc(C(C)(C)O)n(C)n3)nc(N3CCC(N)CC3)nc12 [Compound 244]
< 1000 | CC(C)c1cnn2c(NCc3c(Cl)cccc3-n3ccc(C(C)(C)O)n3)nc(N3CCC(C)(N)CC3)nc12 [Compound 246]
1000 to 10000 | CC(C)c1cnn2c(NCc3ccccc3-c3ccc4ccccc4n3)nc(NCC[C@H](O)CN)nc12 [Compound 247]
< 1000 | CC(C)c1cnn2c(NCc3ccccc3-c3ccc4ccccc4n3)nc(NC[C@@H](O)CN)nc12 [Compound 248]

target: T2, CDK2/Cyclin A (Homo sapiens, UniProt P24941); experiment: Enzymatic assay for CDK2 (FRET based LANCE Ultra kinase assay); type: biochemical; settings: read-out: CDK2 enzymatic activity (IC50 range)
T2 construct: purchased Invitrogen PV6290
Method in brief: as §1

IC50 [nM] | SMILES
> 1000 | CC(C)c1cnn2c(NCc3c(Cl)cccc3-c3cc(C(C)(C)O)n(C)n3)nc(N3CCC(N)CC3)nc12 [Compound 244]
> 1000 | CC(C)c1cnn2c(NCc3c(Cl)cccc3-n3ccc(C(C)(C)O)n3)nc(N3CCC(C)(N)CC3)nc12 [Compound 246]
> 1000 | CC(C)c1cnn2c(NCc3ccccc3-c3ccc4ccccc4n3)nc(NCC[C@H](O)CN)nc12 [Compound 247]
> 1000 | CC(C)c1cnn2c(NCc3ccccc3-c3ccc4ccccc4n3)nc(NC[C@@H](O)CN)nc12 [Compound 248]

tested on: MV4-11; experiment: Cellular MV4-11 viability assay (CellTiter-Glo, 72 hours); type: cell-based; settings: Homo sapiens
Method in brief: as §2

IC50 [nM] | SMILES
< 1000 | CC(C)c1cnn2c(NCc3c(Cl)cccc3-c3cc(C(C)(C)O)n(C)n3)nc(N3CCC(N)CC3)nc12 [Compound 244]
< 1000 | CC(C)c1cnn2c(NCc3c(Cl)cccc3-n3ccc(C(C)(C)O)n3)nc(N3CCC(C)(N)CC3)nc12 [Compound 246]
1000 to 10000 | CC(C)c1cnn2c(NCc3ccccc3-c3ccc4ccccc4n3)nc(NCC[C@H](O)CN)nc12 [Compound 247]
1000 to 10000 | CC(C)c1cnn2c(NCc3ccccc3-c3ccc4ccccc4n3)nc(NC[C@@H](O)CN)nc12 [Compound 248]

target: T3, CDK7/Cyclin H/MNAT1 (Homo sapiens, UniProt P50613); experiment: Enzymatic assay for CDK7 (FRET based LANCE Ultra kinase assay); type: biochemical; settings: CDK7 over CDK1
T3 construct: purchased Invitrogen PR6749B
Method in brief: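 LANCE Ultra TR-FRET kinase assay using a ULight-labeled peptide substrate and a Eu-labeled anti-phospho antibody, with ATP at its Km. Purified CDK/cyclin complex was added to compound after brief centrifugation.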

T3 sequence (P50613 whole entry): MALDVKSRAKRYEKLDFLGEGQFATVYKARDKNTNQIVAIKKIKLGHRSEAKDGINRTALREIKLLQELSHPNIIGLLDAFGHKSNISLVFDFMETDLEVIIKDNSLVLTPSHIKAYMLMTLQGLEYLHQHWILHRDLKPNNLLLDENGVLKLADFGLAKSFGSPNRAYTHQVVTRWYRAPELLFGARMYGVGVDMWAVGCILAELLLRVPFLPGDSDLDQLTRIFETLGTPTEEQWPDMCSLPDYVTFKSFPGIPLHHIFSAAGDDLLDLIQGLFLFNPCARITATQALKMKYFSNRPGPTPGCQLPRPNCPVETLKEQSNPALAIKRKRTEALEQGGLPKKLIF
T3 sequence (P51946 whole entry partner): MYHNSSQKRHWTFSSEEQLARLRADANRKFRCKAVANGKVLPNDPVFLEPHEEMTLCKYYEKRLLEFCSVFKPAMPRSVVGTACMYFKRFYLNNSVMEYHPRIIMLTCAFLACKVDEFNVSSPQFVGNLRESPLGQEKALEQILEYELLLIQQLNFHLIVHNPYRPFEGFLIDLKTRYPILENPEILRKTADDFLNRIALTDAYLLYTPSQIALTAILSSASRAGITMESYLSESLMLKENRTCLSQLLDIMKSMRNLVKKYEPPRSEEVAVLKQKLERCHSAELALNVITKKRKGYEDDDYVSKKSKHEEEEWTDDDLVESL
T3 sequence (P51948 whole entry partner): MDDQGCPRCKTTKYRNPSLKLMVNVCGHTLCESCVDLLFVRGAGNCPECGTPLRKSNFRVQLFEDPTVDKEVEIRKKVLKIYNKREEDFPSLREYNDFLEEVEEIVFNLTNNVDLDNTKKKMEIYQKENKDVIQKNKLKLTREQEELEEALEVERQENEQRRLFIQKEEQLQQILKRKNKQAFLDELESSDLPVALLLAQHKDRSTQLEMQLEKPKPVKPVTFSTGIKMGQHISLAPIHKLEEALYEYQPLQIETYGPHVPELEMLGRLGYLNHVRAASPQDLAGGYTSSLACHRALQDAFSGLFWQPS

CDK1/CDK7: Selectivity of CDK7 inhibition over CDK1 inhibition | SMILES
A (A=greater than 200 fold) | CC(C)c1cnn2c(NCc3c(Cl)cccc3-c3cc(C(C)(C)O)n(C)n3)nc(N3CCC(N)CC3)nc12 [Compound 244]
A (A=greater than 200 fold) | CC(C)c1cnn2c(NCc3c(Cl)cccc3-n3ccc(C(C)(C)O)n3)nc(N3CCC(C)(N)CC3)nc12 [Compound 246]
A (A=greater than 200 fold) | CC(C)c1cnn2c(NCc3ccccc3-c3ccc4ccccc4n3)nc(NCC[C@H](O)CN)nc12 [Compound 247]
A (A=greater than 200 fold) | CC(C)c1cnn2c(NCc3ccccc3-c3ccc4ccccc4n3)nc(NC[C@@H](O)CN)nc12 [Compound 248]

same assay, conditions: CDK7 over CDK2

CDK2/CDK7: Selectivity of CDK7 inhibition over CDK2 inhibition | SMILES
A (A=greater than 200 fold) | CC(C)c1cnn2c(NCc3c(Cl)cccc3-c3cc(C(C)(C)O)n(C)n3)nc(N3CCC(N)CC3)nc12 [Compound 244]
A (A=greater than 200 fold) | CC(C)c1cnn2c(NCc3c(Cl)cccc3-n3ccc(C(C)(C)O)n3)nc(N3CCC(C)(N)CC3)nc12 [Compound 246]
A (A=greater than 200 fold) | CC(C)c1cnn2c(NCc3ccccc3-c3ccc4ccccc4n3)nc(NCC[C@H](O)CN)nc12 [Compound 247]
A (A=greater than 200 fold) | CC(C)c1cnn2c(NCc3ccccc3-c3ccc4ccccc4n3)nc(NC[C@@H](O)CN)nc12 [Compound 248]

same assay, conditions: CDK7 over CDK5

CDK5/CDK7: Selectivity of CDK7 inhibition over CDK5 inhibition | SMILES
A (A=greater than 200 fold) | CC(C)c1cnn2c(NCc3c(Cl)cccc3-c3cc(C(C)(C)O)n(C)n3)nc(N3CCC(N)CC3)nc12 [Compound 244]
A (A=greater than 200 fold) | CC(C)c1cnn2c(NCc3c(Cl)cccc3-n3ccc(C(C)(C)O)n3)nc(N3CCC(C)(N)CC3)nc12 [Compound 246]
A (A=greater than 200 fold) | CC(C)c1cnn2c(NCc3ccccc3-c3ccc4ccccc4n3)nc(NCC[C@H](O)CN)nc12 [Compound 247]
A (A=greater than 200 fold) | CC(C)c1cnn2c(NCc3ccccc3-c3ccc4ccccc4n3)nc(NC[C@@H](O)CN)nc12 [Compound 248]

same assay, conditions: read-out: CDK7 enzymatic activity (IC50 range)

IC50 [nM] | SMILES
< 100 | CC(C)c1cnn2c(NCc3c(Cl)cccc3-c3cc(C(C)(C)O)n(C)n3)nc(N3CCC(N)CC3)nc12 [Compound 244]
< 100 | CC(C)c1cnn2c(NCc3c(Cl)cccc3-n3ccc(C(C)(C)O)n3)nc(N3CCC(C)(N)CC3)nc12 [Compound 246]
< 100 | CC(C)c1cnn2c(NCc3ccccc3-c3ccc4ccccc4n3)nc(NCC[C@H](O)CN)nc12 [Compound 247]
< 100 | CC(C)c1cnn2c(NCc3ccccc3-c3ccc4ccccc4n3)nc(NC[C@@H](O)CN)nc12 [Compound 248]

tested on: A2780; experiment: Cellular A2780 viability assay (CellTiter-Glo, 72 hours); type: cell-based; settings: Homo sapiens
Text: Human T-cell acute lymphoblastic leukemia cell line, MOLT-4 (ATCC, Cat #CRL-1582), Human multiple myeloma cell line, RPMI-8226 (Invitrogen, Cat #22400-089) and MM.1S (ATCC, Cat #CRL-2974), NSCLC (Non-small cell lung cancer) cell line H460 (ATCC, Cat #HTB-177), Human colon colorectal carcinoma cell line HCT116 (ATCC, Cat #CCL-247), Human acute monocytic leukemia cell line MV4-11 (ATCC, Cat #CRL-9591), OVCAR-3 (ATCC, Cat #HTB-161) and A2780 (ECACC, Cat #93112519) were obtained from ATCC. Cells were grown in RPMI-1640 media (Invitrogen, Cat #22400-089) supplemented with 10% FBS (Invitrogen, Cat #10099141) and 1% penicillin/streptomycin (Invitrogen, Cat #15070063) and cultured at 37° C., 5% CO2 in a humidified chamber. All cell lines were routinely tested for mycoplasma.
The effect of the CDK7 inhibitor to inhibit the growth of target cancer cells was evaluated through the 72 hours time period of viability assay. Briefly, the candidate cell line ware plated in 96 well plate at the following density of cells respectively. 1×10^4 cells/well for MOLT-4, RPMI-8226, MV4-11 and MM.1S, 5×10^3 for H460, HCT116 and OVCAR-3 and IX 10^3 for A2780. After 24 hours, the cells were treated with various concentrations of the compound (ranging from 0.0015 uM to 10 uM). DMSO solvent without compound served as a control and final DMSO concentration less than 0.1%. After 72 hours of incubation at 37° C., 5% CO2 incubator, cells were analyzed for the viability using the CellTiter-Glo Luminescent Cell Viability Assay (Promega, Cat #G7570). All viability assays were performed in duplicate and Luminescence was read using an Envision (Perkin Elmer, USA). Data was analyzed using XLfit software.

IC50 [nM] | SMILES
≤ 1000 | CC(C)c1cnn2c(NCc3c(Cl)cccc3-c3cc(C(C)(C)O)n(C)n3)nc(N3CCC(N)CC3)nc12 [Compound 244]
≤ 1000 | CC(C)c1cnn2c(NCc3c(Cl)cccc3-n3ccc(C(C)(C)O)n3)nc(N3CCC(C)(N)CC3)nc12 [Compound 246]
1000 to 10000 | CC(C)c1cnn2c(NCc3ccccc3-c3ccc4ccccc4n3)nc(NCC[C@H](O)CN)nc12 [Compound 247]
≤ 1000 | CC(C)c1cnn2c(NCc3ccccc3-c3ccc4ccccc4n3)nc(NC[C@@H](O)CN)nc12 [Compound 248]

target: T4, CDK1/Cyclin B (Homo sapiens, UniProt P06493); experiment: Enzymatic assay for CDK1 (FRET based LANCE Ultra kinase assay); type: biochemical; settings: read-out: CDK1 enzymatic activity (IC50 range)
T4 construct: purchased Invitrogen PR4768C
Method in brief: as §1

T4 sequence (P06493 whole entry): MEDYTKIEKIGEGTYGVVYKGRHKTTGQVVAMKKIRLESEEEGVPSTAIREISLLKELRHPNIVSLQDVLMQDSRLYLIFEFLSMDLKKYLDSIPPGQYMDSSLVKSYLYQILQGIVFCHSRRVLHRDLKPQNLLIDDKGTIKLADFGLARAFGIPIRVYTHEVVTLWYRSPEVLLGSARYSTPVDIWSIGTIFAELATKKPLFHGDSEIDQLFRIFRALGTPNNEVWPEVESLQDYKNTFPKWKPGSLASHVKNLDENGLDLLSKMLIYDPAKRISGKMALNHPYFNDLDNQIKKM
T4 sequence (P14635 whole entry partner): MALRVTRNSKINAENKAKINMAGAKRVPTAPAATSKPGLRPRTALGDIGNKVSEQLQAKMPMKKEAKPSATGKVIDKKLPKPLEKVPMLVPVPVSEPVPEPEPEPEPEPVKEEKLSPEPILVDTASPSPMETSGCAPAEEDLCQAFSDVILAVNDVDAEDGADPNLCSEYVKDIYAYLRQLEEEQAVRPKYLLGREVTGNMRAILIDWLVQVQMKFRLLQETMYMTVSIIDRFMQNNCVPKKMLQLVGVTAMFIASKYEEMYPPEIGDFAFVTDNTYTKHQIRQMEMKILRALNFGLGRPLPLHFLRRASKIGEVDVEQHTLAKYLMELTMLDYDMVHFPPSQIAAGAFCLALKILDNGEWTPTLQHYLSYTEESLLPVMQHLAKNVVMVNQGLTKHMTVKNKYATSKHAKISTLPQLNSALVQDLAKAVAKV

IC50 [nM] | SMILES
> 1000 | CC(C)c1cnn2c(NCc3c(Cl)cccc3-c3cc(C(C)(C)O)n(C)n3)nc(N3CCC(N)CC3)nc12 [Compound 244]
> 1000 | CC(C)c1cnn2c(NCc3c(Cl)cccc3-n3ccc(C(C)(C)O)n3)nc(N3CCC(C)(N)CC3)nc12 [Compound 246]
> 1000 | CC(C)c1cnn2c(NCc3ccccc3-c3ccc4ccccc4n3)nc(NCC[C@H](O)CN)nc12 [Compound 247]
> 1000 | CC(C)c1cnn2c(NCc3ccccc3-c3ccc4ccccc4n3)nc(NC[C@@H](O)CN)nc12 [Compound 248]
